Results published in patent US20260234146A1, “Use of Hypoxia-Inducible Factor-Prolyl Hydroxylase Inhibitor (HIF-PHI) in Rare Anemia” (Kind Pharmaceutical, priority 2023, published 2026).
Marks after values point to notes of the source that are not given here.

Legend:
[1] = tested on: Hbb^d3th/d3th mice; experiment: Effect on homozygous β-thalassemia mice (CBC analysis); format: in vivo; design: HGB Hemoglobin content: unit not given here
Method: Throughout the experimental stage, animals were housed in cages in an animal room with 24-hour continuous central air conditioning, temperature set at 20-26° C., relative air humidity set at 40-70%, and a 12-hour light/dark cycle. All animals had free access to food (irradiated sterile feed) and water (prepared by an ultrapure water system). The mouse strain used in the experiment was: Hbb^d3th/d3th mice; female and male, 9-15 weeks old, weighing 25-30 grams. The breeding method involved one male paired with two females. Male mice with the Hbb^d3th/d3th genotype, and female mice with the Hbb^d3th/+ genotype were selected. At one week of age, tissue DNA was extracted from toe clips of offspring. Subsequently, PCR amplification and agarose gel electrophoresis for band separation were used for genotyping. Before the experiment, secondary genotyping was performed on mice of appropriate age, and mice with no significant differences in body weight and appearance were selected as experimental animals. Vehicle 1 (0.1 M meglumine aqueous solution) was prepared by dissolving an appropriate amount of meglumine (0.586 g) in an appropriate amount of deionized water (30 mL) with stirring to prepare the vehicle. After preparation, the vehicle was aliquoted into daily doses and stored at 5±3° C. Before administration, it was stirred at room temperature for at least 10 minutes and stirred continuously during the dosing process.
Comp-1: The required amount of Comp-1 was weighed, completely dissolved in an appropriate volume of Vehicle 1, with stirring and sonicating to form a solution. After visually observing dissolution, vehicle was gradually added to reach the specified volume. Before daily dosing, the formulations (including vehicle) were removed from refrigerator and allowed to reach room temperature. Formulations were stirred at room temperature for at least 10 minutes before administration and stirred throughout the dosing process. The route of administration was oral gavage for all groups, with a dosing volume of 10 mL/kg for all groups, and a dosing frequency of daily for a total of 42 days.
On days 0, 15, 29, and 43 of dosing, 50 μl of blood was collected from orbit of mice, stored at 4° C., and allowed to return to room temperature before analysis. Samples were then gently mixed and added to pre-prepared diluent (blood:diluent=1:6). Data were obtained using the instrument's pre-dilution mode for detection. Data statistics were processed and analyzed using Microsoft Office Excel (Microsoft Corporation, version 2013, Redmond, WA, USA) and GraphPad Prism 7.0. Red blood cell counts and percentages were reported with two significant FIGURES. T-test analysis was used for comparisons of blood cell counts and percentages between groups and within groups at different time points.

[2] = tested on: MDS model mice; experiment: Effect on MDS model mice (RBC, Hb, HCT); format: in vivo, C57 mice
Method: Throughout the experimental stage, animals were housed in cages in an animal room with 24-hour continuous central air conditioning, temperature set at 20-26° C., relative air humidity set at 40-70%, and a 12-hour light/dark cycle. All animals had free access to food and sterilized drinking water. The C57 mice used in the experiment contained three knocked-in genes in their genome: Vav1-Cre, LSL, and c-Myc(T58A/S62E). Only animals positive for all three genes were used in the experiment. Expression of Vav1-Cre can induce cleavage at the LSL site, thereby allowing tTA gene expression. After induction with Doxycycline, tTA can bind to promoter of the c-Myc(T58A/S62E) gene, driving its expression, so that the animals develop an MDS phenotype. When the mice reached approximately 8 weeks of age, modeling commenced. They were fed a special diet (containing 200 mg doxycycline per kg of feed) for 4 weeks. Mice were anesthetized on days 0, 14, and 28, and 70 μl of blood was collected from the orbit to measure RBC, Hb, and HCT levels, confirming successful establishment of the MDS model. Subsequently, the mice were randomly divided into 3 groups, with 10 mice per group: Vehicle control group (0.1 M meglumine), Comp-1 low-dose group (10 mg/kg), and Comp-1 high-dose group (30 mg/kg). The dosing or vehicle volume was 6.67 mL/kg. The dosing or vehicle frequency for each group was oral gavage three times per week (TIW) for 4 consecutive weeks. That is, from week 4 to week 8 constituted the treatment period. Mice were anesthetized 14 days (experimental week 6) and 28 days (experimental week 8) after the start of dosing, and 70 μl of blood was collected from the orbit. Collected blood samples were placed in heparin-anticoagulant tubes, and RBC, Hb, and HCT levels in the blood were measured. After blood collection at the final time point for each animal, the animals were euthanized, and corresponding organ tissues were collected for storage and potential future use. Detection instrument: Element HT5 Veterinary Hematology Analyzer; Supplier: HESKA. Data analysis was performed using GraphPad Prism 9.0.

[3] = tested on: Townes SCD model mouse; experiment: Effect on SCD anemia mice (RBC, Hb, HCT); format: in vivo
Method: Throughout the experimental stage, animals were housed in cages in an animal room with 24-hour continuous central air conditioning, temperature set at 20-26° C., relative air humidity set at 40-70%, and a 12-hour light/dark cycle. All animals had free access to food and sterilized drinking water. The animal strain was B6·Cg-Hbb^tm2(HBG1,HBB)Tow/Hbat^ml(HBA)Tow/ShmtJ mice, a Townes SCD model mouse where mouse endogenous hemoglobin is replaced by knocked-in human hemoglobin. Two weeks after birth, mice were ear-punched for identification, and the ear tissue was collected for PCR analysis to determine its genotype. Mice confirmed as B6·Cg-Hbb^tm2(HBG1,HBB)Tow/Hbat^ml(HBA)Tow/ShmtJ were grouped. […] Blood sampling was performed every other week. Mice showing symptoms of anemia were selected for dosing. Animals were randomly divided into groups, 6 animals per group: Vehicle control group (0.1 M meglumine aqueous solution; oral gavage; volume: 6.67 mL/kg), Comp-1 group (30 mpk; oral gavage; volume: 6.67 mL/kg), and EPO group (50 U/30 g body weight; SC injection; MyBioSource, cat. #: MBS650094, erythropoietin alpha). Dosing was administered three times a week (TIW) for 4 consecutive weeks. On days 14 and 28 of dosing, 70 μL of blood was collected from orbit. Collected blood samples were placed in heparin-anticoagulant tubes. 15 μL of the blood sample from the anticoagulant tube was aspirated and added to an Element HT5 Veterinary Hematology Analyzer. RBC, Hb, and HCT in the blood were measured according to the instrument's operating instructions. Data analysis was performed using GraphPad Prism 9.0. […]

[4] = 10 mg/kg group, Before dosing Week 4
[5] = 10 mg/kg group, Pre-modeling Week 0
[6] = 10 mg/kg oral TIW, After 2 weeks of dosing Week 6
[7] = 10 mg/kg oral TIW, After 4 weeks of dosing Week 8
[8] = 30 mg/kg group, Before dosing Week 4
[9] = 30 mg/kg group, Pre-modeling Week 0
[10] = 30 mg/kg oral TIW, After 2 weeks of dosing Week 6
[11] = 30 mg/kg oral TIW, After 4 weeks of dosing Week 8
[12] = 30 mg/kg group, Before dosing Week 0
[13] = 30 mg/kg oral TIW, After 2 weeks of dosing Week 2
[14] = 30 mg/kg oral TIW, After 4 weeks of dosing Week 4

## O=C(O)CNC(=O)C1=C(O)C2(CCCC2)n2c(ccc2-c2ccccc2)C1=O [Comp-1, (6′-hydroxy-8′-oxo-3′-phenyl-8′H-spiro[cyclopentane-1,5′-indolizine]-7′-carbonyl)glycine]
[1]; 5 mpk group, Day 0 (pre-dose)
  HCT Hematocrit: 27.58%
  HGB Hemoglobin content: 74.60
  RBC Red Blood Cell Count: 7.90 10^12/L
[1]; 5 mpk oral daily, Day 15
  HCT Hematocrit: 31.16# %
  HGB Hemoglobin content: 81.20
  RBC Red Blood Cell Count: 8.35 10^12/L
[1]; 5 mpk oral daily, Day 29
  HCT Hematocrit: 32.10## %
  HGB Hemoglobin content: 83.00
  RBC Red Blood Cell Count: 8.59 10^12/L
[1]; 5 mpk oral daily, Day 43
  HCT Hematocrit: 31.04## %
  HGB Hemoglobin content: 80.20
  RBC Red Blood Cell Count: 8.58 10^12/L
[1]; 10 mpk group, Day 0 (pre-dose)
  HCT Hematocrit: 26.20%
  HGB Hemoglobin content: 74.80
  RBC Red Blood Cell Count: 7.90 10^12/L
[1]; 10 mpk oral daily, Day 15
  HCT Hematocrit: 31.92## %
  HGB Hemoglobin content: 83.60
  RBC Red Blood Cell Count: 8.60## 10^12/L
[1]; 10 mpk oral daily, Day 29
  HCT Hematocrit: 33.02## %
  HGB Hemoglobin content: 88.04
  RBC Red Blood Cell Count: 9.15# 10^12/L
[1]; 10 mpk oral daily, Day 43
  HCT Hematocrit: 33.36### %
  HGB Hemoglobin content: 89.40
  RBC Red Blood Cell Count: 9.30## 10^12/L
[1]; 15 mpk group, Day 0 (pre-dose)
  HCT Hematocrit: 27.48%
  HGB Hemoglobin content: 75.00
  RBC Red Blood Cell Count: 7.77 10^12/L
[1]; 15 mpk oral daily, Day 15
  HCT Hematocrit: 34.50## %
  HGB Hemoglobin content: 90.17
  RBC Red Blood Cell Count: 8.95# 10^12/L
[1]; 15 mpk oral daily, Day 29
  HCT Hematocrit: 36.13### %
  HGB Hemoglobin content: 97.5
  RBC Red Blood Cell Count: 9.72#### 10^12/L
[1]; 15 mpk oral daily, Day 43
  HCT Hematocrit: 36.10#### %
  HGB Hemoglobin content: 94.83
  RBC Red Blood Cell Count: 9.45#### 10^12/L
[2]; [4]
  HCT Hematocrit: 28.12%
  Hb Hemoglobin content: 9.52 g/dL
  RBC Red Blood Cell Count: 6.03 M/μL
[2]; [5]
  HCT Hematocrit: 43.35%
  Hb Hemoglobin content: 14.90 g/dL
  RBC Red Blood Cell Count: 9.00 M/μL
[2]; [6]
  HCT Hematocrit: 34.36%
  Hb Hemoglobin content: 10.97 g/dL
  RBC Red Blood Cell Count: 6.33 M/μL
[2]; [7]
  HCT Hematocrit: 37.52%
  Hb Hemoglobin content: 11.77 g/dL
  RBC Red Blood Cell Count: 7.17 M/μL
[2]; [8]
  HCT Hematocrit: 28.01%
  Hb Hemoglobin content: 9.54 g/dL
  RBC Red Blood Cell Count: 5.90 M/μL
[2]; [9]
  HCT Hematocrit: 43.32%
  Hb Hemoglobin content: 14.37 g/dL
  RBC Red Blood Cell Count: 9.01 M/μL
[2]; [10]
  HCT Hematocrit: 43.13%
  Hb Hemoglobin content: 13.56 g/dL
  RBC Red Blood Cell Count: 7.11 M/μL
[2]; [11]
  HCT Hematocrit: 47.41%
  Hb Hemoglobin content: 14.91 g/dL
  RBC Red Blood Cell Count: 8.46 M/μL
[3]; [12]
  Arithmetic mean of HCT hematocrit: 27.20%
  Arithmetic mean of HGB hemoglobin content: 8.47 g/dL
  Arithmetic mean of RBC red blood cell count: 6.34 M/μL
[3]; [13]
  Arithmetic mean of HCT hematocrit: 40.05%
  Arithmetic mean of HGB hemoglobin content: 11.63 g/dL
  Arithmetic mean of RBC red blood cell count: 8.88 M/μL
[3]; [14]
  Arithmetic mean of HCT hematocrit: 41.45%
  Arithmetic mean of HGB hemoglobin content: 12.10 g/dL
  Arithmetic mean of RBC red blood cell count: 9.09 M/μL
